Test systems include COLO 205 colon; UACC-257 melanoma; A549 NSCLC; HOP-62 NSCLC; K-562 leukemia; UO-31 renal; NCI-H226 lung; RPMI-8226 leukemia; NCI-H460 lung.
Holding throughout (assay): NCI-60 cell line screen, 48 h

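1) Cells in 96-well plates. 2) Compound, 48 h, 5 concentrations. 3) Linear interpolation between surrounding doses. 4) Unreached endpoint = highest concentration. TGI denotes the concentration required for complete inhibition of growth.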 Where only a bound is given, the exact number is not on record here.

Consider `COc1cccc(/C=N/[N-]C(N)=O)c1[O-].[Cu+2].c1ccncc1`, for which the TGI with COLO 205 colon was 32.2 µM; with UACC-257 melanoma, over 100 µM; with A549 NSCLC, 34.9 µM; in the test with HOP-62 NSCLC it was 52.1 µM; with K-562 leukemia, 58.5 µM; with UO-31 renal it was 44.3 µM. In addition, the TGI was 44.6 µM in the test on NCI-H226 lung, 67.1 µM with RPMI-8226 leukemia and 31.9 µM with NCI-H460 lung.

For the compound `COC(=O)C1=CCS(=O)(=O)C1`, the TGI with COLO 205 colon, in the test on UACC-257 melanoma, in the test on A549 NSCLC, in the test with HOP-62 NSCLC, in the test on K-562 leukemia and with UO-31 renal was over 100 µM throughout. For the same compound, the TGI with NCI-H226 lung, in the test with RPMI-8226 leukemia and with NCI-H460 lung was over 100 µM throughout.

For the compound `O=C1OC(/C=C/c2ccccc2)C(=O)C1=O` (centres undefined), the TGI in the test on COLO 205 colon, with UACC-257 melanoma, in the test on A549 NSCLC, with HOP-62 NSCLC, in the test on K-562 leukemia and in the test on UO-31 renal was over 100 µM in each case. Moreover, the TGI with NCI-H226 lung, in the test on RPMI-8226 leukemia and in the test on NCI-H460 lung was over 100 µM throughout.

Turning to `O=c1c2ccc(Br)cc2nc(-c2ccccc2)n1NC1OC(CO)C(O)C(O)C1O` (centres undefined), the TGI in the test on COLO 205 colon, in the test with UACC-257 melanoma, in the test with A549 NSCLC, in the test with HOP-62 NSCLC, in the test on K-562 leukemia and in the test with UO-31 renal was over 100 µM in each case. Besides, the TGI in the test on NCI-H226 lung, with RPMI-8226 leukemia and in the test on NCI-H460 lung was over 100 µM throughout.

`O=C(NCCOCCO)c1ccc(O)cc1`: the TGI in the test with COLO 205 colon, in the test with A549 NSCLC, in the test with HOP-62 NSCLC, in the test with K-562 leukemia, in the test on UO-31 renal and with RPMI-8226 leukemia was over 100 µM each time. In addition, in the test with NCI-H460 lung, the TGI is over 100 µM.

With `COc1cc(C2C(C(=O)Nc3ccccc3C)=C(C)NC(C)=C2C(=O)Nc2ccccc2C)ccc1O`, the TGI in the test with COLO 205 colon, with UACC-257 melanoma, in the test with A549 NSCLC, with HOP-62 NSCLC, in the test with K-562 leukemia and with UO-31 renal was over 100 µM throughout. In addition, the TGI with NCI-H226 lung, in the test on RPMI-8226 leukemia and in the test with NCI-H460 lung was over 100 µM each time.

Consider `Cn1c(=O)c2nc3sc4ccccc4c(=N)n3c2n(C)c1=O`, for which the TGI in the test with COLO 205 colon, with UACC-257 melanoma, in the test with A549 NSCLC, in the test on HOP-62 NSCLC, in the test on K-562 leukemia and with UO-31 renal was over 100 µM each time. Besides, the TGI with NCI-H226 lung and with NCI-H460 lung was over 100 µM in each case.

As for `O=C1OC(=O)C2C1C1(c3ccccc3)OC2(c2ccccc2)c2c(Br)c(Br)c(Br)c(Br)c21` (centres undefined), the TGI in the test with COLO 205 colon, in the test on UACC-257 melanoma, with A549 NSCLC, in the test with HOP-62 NSCLC, in the test on K-562 leukemia and in the test with UO-31 renal was over 100 µM each time. Also, the TGI in the test with NCI-H226 lung, with RPMI-8226 leukemia and with NCI-H460 lung was over 100 µM throughout.

For the compound `C=C1[C@@H]2CCC(C)(C)[C@H]1CCC(=O)[C@@H]2C(=O)OC`, the TGI in the test with COLO 205 colon, in the test on UACC-257 melanoma, with A549 NSCLC, in the test with HOP-62 NSCLC, in the test on K-562 leukemia and in the test with UO-31 renal was over 100 µM each time. The TGI in the test on NCI-H226 lung, in the test on RPMI-8226 leukemia and in the test with NCI-H460 lung was over 100 µM each time.

In the case of `Cc1ccc(Sc2cc([N+](=O)[O-])cc(Sc3ccc(C)cc3)c2Sc2ccc(C)cc2)cc1`, the TGI in the test on COLO 205 colon, with UACC-257 melanoma, with A549 NSCLC, in the test with HOP-62 NSCLC, in the test with K-562 leukemia and in the test on UO-31 renal was over 100 µM in each case. The TGI with NCI-H226 lung, in the test with RPMI-8226 leukemia and in the test on NCI-H460 lung was over 100 µM throughout.

`CC(=O)NC1C(OCc2ccccc2)OC(COC(=O)CCCCCCCCCCNC(=O)CCNc2ccc([N+](=O)[O-])c3[nH]c4ccc(O)cc4c(=O)c23)C(O)C1OC(C)C(=O)N[C@H](C(=O)N[C@H](CCC(=O)O)C(N)=O)C(C)C` (some centres undefined): the TGI with COLO 205 colon, with UACC-257 melanoma, in the test with A549 NSCLC, in the test on HOP-62 NSCLC, in the test on K-562 leukemia and with UO-31 renal was over 100 µM in each case. Moreover, the figures for the TGI in the test with NCI-H226 lung, in the test with RPMI-8226 leukemia and in the test on NCI-H460 lung were over 100 µM, 46.6 µM and over 100 µM, respectively.

Consider `CC12CCC(C)(c3cc(O)c(O)cc31)c1cc(O)c(O)cc12`, for which the TGI in the test on COLO 205 colon worked out at 30 µM; with UACC-257 melanoma, 29.8 µM; with A549 NSCLC, 94.4 µM; in the test with HOP-62 NSCLC it was 67.8 µM; in the test on K-562 leukemia, 29.5 µM; with UO-31 renal it was 43.5 µM. In addition, the TGI in the test with RPMI-8226 leukemia was 30 µM; in the test with NCI-H460 lung, 35.7 µM.

Take `CCCCCCCCCCCCCCCc1nc(SCC(=O)O)n[nH]1`: the TGI in the test on UACC-257 melanoma, in the test with A549 NSCLC, in the test on HOP-62 NSCLC, with K-562 leukemia, in the test with UO-31 renal and in the test on RPMI-8226 leukemia was over 100 µM throughout. In addition, the TGI with NCI-H460 lung is over 100 µM.

For `CCN(CC)[C@@H]1c2cc3c(cc2C(c2cc(OC)c(O)c(OC)c2)C2C(=O)CO[C@@H]21)OCO3` (some centres undefined), the TGI with COLO 205 colon, in the test on UACC-257 melanoma, in the test on A549 NSCLC, in the test on HOP-62 NSCLC, in the test with K-562 leukemia and with UO-31 renal was over 100 µM throughout. In addition, the TGI in the test with NCI-H226 lung, in the test with RPMI-8226 leukemia and in the test with NCI-H460 lung was over 100 µM each time.

As to `CC1(C)OC(=O)C(c2ccsc2)C(=O)O1`, the TGI in the test with COLO 205 colon, with UACC-257 melanoma, in the test with A549 NSCLC, with HOP-62 NSCLC, with K-562 leukemia and with UO-31 renal was over 100 µM in each case. Besides, the TGI in the test on NCI-H226 lung, in the test on RPMI-8226 leukemia and in the test on NCI-H460 lung was over 100 µM each time.

The record behind these values is PubChem BioAssay (NCI).
